± gives the expanded uncertainty stated by the source.
What was measured:
[1] = molar enthalpy of vaporization or sublimation; conditions: Static calorimetry
[2] = Crystal; for mass density: 298.15 K, 101.33 kPa; for Normal melting temperature: DTA

SMILES	molar enthalpy ([1]; 399.15 K, Crystal)	mass density [2]	Normal melting temperature [2]	molar enthalpy ([1]; 322.65 K, Crystal)	molar enthalpy ([1]; 334 K, Liquid)
CC(C)(C)c1ccc(-c2ccc(C(C)(C)C)cc2)cc1 [4,4'-bis(1,1-dimethylethyl)-1,1'-biphenyl]	23.8 ± 0.406 kcal/mol	950 kg/m3	127.7 ± 0.4 °C	–	–
CC(C)(C)c1ccc(-c2ccccc2)cc1 [4-(1,1-dimethylethyl)-1,1'-biphenyl]	–	1030 kg/m3	51.6 ± 0.4 °C	23.3 ± 0.382 kcal/mol	18.4 ± 0.206 kcal/mol

Source: the NIST ThermoML archive (doi:10.1016/j.jct.2008.12.015)
